According to patent US4323567A, “Arylmalonamido-1-oxadethiacephalosporins” (priority 1976, dated 1982):

Columns and labels:
Assay in all cases: Minimal inhibitory concentration, nutrient agar plate
[1] = test system: Serratia marsescens 13880; type: cell-based; conditions: Serratia, 13880; as sodium salt, inoculum size 10^8, pH 7.0; read-out: Minimal inhibitory concentration
Proteus mirabilis PR-4 = type: cell-based; conditions: PR4, as sodium salt, inoculum size 10^8, pH 7.0, read-out: Minimal inhibitory concentration
Escherichia coli H = type: cell-based; conditions: as sodium salt, inoculum size 10^8, pH 7.0, read-out: Minimal inhibitory concentration
E. coli 73 = type: cell-based, Escherichia coli; conditions: Escherichia coli, 73; as sodium salt, inoculum size 10^8, pH 7.0; read-out: Minimal inhibitory concentration
Enterobacter cloacae 233 = type: cell-based; conditions: Enterobacter cloacae, 233; as sodium salt, inoculum size 10^8, pH 7.0; read-out: Minimal inhibitory concentration
E. coli 377 = type: cell-based, Escherichia coli; conditions: Escherichia coli, 377; as sodium salt, inoculum size 10^8, pH 7.0; read-out: Minimal inhibitory concentration
P. vulgaris CN-329 = type: cell-based; conditions: Proteus vulgaris, CN329; as sodium salt, inoculum size 10^8, pH 7.0; read-out: Minimal inhibitory concentration
Klebsiella pneumoniae = type: cell-based; conditions: as sodium salt, inoculum size 10^8, pH 7.0, read-out: Minimal inhibitory concentration
P. morganii No. 9 = type: cell-based, Proteus morganii; conditions: Morganella morganii, NO.9; as sodium salt, inoculum size 10^8, pH 7.0; read-out: Minimal inhibitory concentration
Ps. aeruginosa 25619 = type: cell-based, Pseudomonas aeruginosa; conditions: Pseudomonas aeruginosa, 25619; as sodium salt, inoculum size 10^8, pH 7.0; read-out: Minimal inhibitory concentration
Klebsiella sp. 363 = type: cell-based; conditions: SP.363, as sodium salt, inoculum size 10^8, pH 7.0, read-out: Minimal inhibitory concentration
[2] = test system: Pseudomonas aeruginosa Denken; type: cell-based; conditions: as sodium salt, inoculum size 10^8, pH 7.0, read-out: Minimal inhibitory concentration
E. coli JC-2 = type: cell-based; conditions: Escherichia coli, JC2; as sodium salt, inoculum size 10^8, pH 7.0; read-out: Minimal inhibitory concentration
Ps. aeruginosa 24 = type: cell-based, Pseudomonas aeruginosa; conditions: Pseudomonas aeruginosa, 24; as sodium salt, inoculum size 10^8, pH 7.0; read-out: Minimal inhibitory concentration

| Structure (SMILES) | MIC [1] [µg/mL] | MIC (Proteus mirabilis PR-4) [µg/mL] | MIC (Escherichia coli H) [µg/mL] | MIC (E. coli 73) [µg/mL] | MIC (Enterobacter cloacae 233) [µg/mL] | MIC (E. coli 377) [µg/mL] | MIC (P. vulgaris CN-329) [µg/mL] | MIC (Klebsiella pneumoniae) [µg/mL] | MIC (P. morganii No. 9) [µg/mL] | MIC (Ps. aeruginosa 25619) [µg/mL] | MIC (Klebsiella sp. 363) [µg/mL] | MIC [2] [µg/mL] | MIC (E. coli JC-2) [µg/mL] | MIC (Ps. aeruginosa 24) [µg/mL] |
| --- | --- | --- | --- | --- | --- | --- | --- | --- | --- | --- | --- | --- | --- | --- |
| O=C(O)Cn1nnnc1SCC1=C(C(=O)O)N2C(=O)[C@@H](NC(=O)C(C(=O)O)c3cccs3)[C@H]2OC1 (stereo partly drawn) [Example III-11, 7β-[α-(2-thienyl)-α-carboxyacetamido]-3-(1-carboxymethyltetrazol-5-yl)thiomethyl-1-oxadethia-3-cephem-4-carboxylic acid] | 25 | 1.56 | 0.78 | > 100 | 25 | 6.25 | > 100 | 3.13 | 1.56 | > 100 | > 100 | > 100 | 12.5 |  |
| Cn1nnnc1SCC1=C(C(=O)O)N2C(=O)[C@@H](NC(=O)C(C(=O)O)c3ccccc3)[C@H]2OC1 (stereo partly drawn) [Example III-1, 7β-(α-phenyl-α-carboxyacetamido)-3-(1-methyltetrazol-5-yl)thiomethyl-1-oxadethia-3-cephem-4-carboxylic acid] | 0.78 | 0.39 | 0.1 | > 100 | 0.39 | 0.2 | 100 | 0.2 | 0.39 | 3.13 |  | > 100 | 0.2 | > 100 |
| Cn1nnnc1SCC1=C(C(=O)O)N2C(=O)[C@@H](NC(=O)C(C(=O)O)c3ccsc3)[C@H]2OC1 (stereo partly drawn) [Example III-9, 7β-[α-(3-thienyl)-α-carboxyacetamido]-3-(1-methyltetrazol-5-yl)thiomethyl-1-oxadethia-3-cephem-4-carboxylic acid] | 0.78 | 0.39 | 0.1 | > 100 | 0.39 | 0.2 | 100 | 0.2 | 0.39 | 6.25 | > 100 | > 100 | 0.1 |  |
| O=C(O)Cn1nnnc1SCC1=C(C(=O)O)N2C(=O)[C@@H](NC(=O)C(C(=O)O)c3ccccc3)[C@H]2OC1 (stereo partly drawn) [Example III-10, 7β-(α-carboxy-α-phenylacetamido)-3-(1-carboxymethyltetrazol-5-yl)thiomethyl-1-oxadethia-3-cephem-4-carboxylic acid] | 50 | 0.78 | 0.78 | > 100 | 12.5 | 0.25 | > 100 | 3.13 | 0.78 | 100 | > 100 | > 100 | 3.13 | > 100 |
| CO[C@@]1(NC(=O)C(C(=O)O)c2cccs2)C(=O)N2C(C(=O)O)=C(CSc3nnnn3C)CO[C@@H]21 (stereo partly drawn) [III-23, 7β-[α-carboxy-α-(2-theinyl)acetamido]-7α-methoxy-3-(1-methyltetrazol-5-yl)thiomethyl-1-oxadethia-3-cephem-4-carboxylic acid] | 0.39 | 0.1 | 0.025 | 0.2 | 0.2 | 0.39 | 0.1 | 0.05 | 0.1 | 12.5 | 0.1 | 100 | 0.05 | 50 |
| Cc1nnc(SCC2=C(C(=O)O)N3C(=O)[C@@H](NC(=O)C(C(=O)O)c4ccccc4)[C@H]3OC2)s1 (stereo partly drawn) [Example III-12, 7β-(α-phenyl-α-carboxyacetamido)-3-(2-methyl-1,3,4-thiadiazol-5-yl)thiomethyl-1-oxadethia-3-cephem-4-carboxylic acid] | 1.56 | 0.39 | 0.2 | > 100 | 1.56 | 0.78 | 100 | 0.78 | 0.39 | 3.13 | > 100 | > 100 | 0.39 | > 100 |
